Test results reported in patent publication US20180148418A1, “AMIDO-SUBSTITUTED CYCLOHEXANE DERIVATIVES” (Bayer Pharma Aktiengesellschaft, priority 2015, published 2018).

Columns and labels:
TNKS2 = target: T1, TNKS2 (Homo sapiens, UniProt Q9H2K2); test: TNKS2 Assay B (auto-parsylation, [3H]-NAD+ SPA); assay type: biochemical; settings: 6 nM TNKS2, auto-parsylation, over night at room temperature
T1 construct: purchased BPS Bioscience, San Diego, USA 80572 (TNKS2 Histone Ribosylation Assay Kit)
T1 sequence (Q9H2K2 1-1166): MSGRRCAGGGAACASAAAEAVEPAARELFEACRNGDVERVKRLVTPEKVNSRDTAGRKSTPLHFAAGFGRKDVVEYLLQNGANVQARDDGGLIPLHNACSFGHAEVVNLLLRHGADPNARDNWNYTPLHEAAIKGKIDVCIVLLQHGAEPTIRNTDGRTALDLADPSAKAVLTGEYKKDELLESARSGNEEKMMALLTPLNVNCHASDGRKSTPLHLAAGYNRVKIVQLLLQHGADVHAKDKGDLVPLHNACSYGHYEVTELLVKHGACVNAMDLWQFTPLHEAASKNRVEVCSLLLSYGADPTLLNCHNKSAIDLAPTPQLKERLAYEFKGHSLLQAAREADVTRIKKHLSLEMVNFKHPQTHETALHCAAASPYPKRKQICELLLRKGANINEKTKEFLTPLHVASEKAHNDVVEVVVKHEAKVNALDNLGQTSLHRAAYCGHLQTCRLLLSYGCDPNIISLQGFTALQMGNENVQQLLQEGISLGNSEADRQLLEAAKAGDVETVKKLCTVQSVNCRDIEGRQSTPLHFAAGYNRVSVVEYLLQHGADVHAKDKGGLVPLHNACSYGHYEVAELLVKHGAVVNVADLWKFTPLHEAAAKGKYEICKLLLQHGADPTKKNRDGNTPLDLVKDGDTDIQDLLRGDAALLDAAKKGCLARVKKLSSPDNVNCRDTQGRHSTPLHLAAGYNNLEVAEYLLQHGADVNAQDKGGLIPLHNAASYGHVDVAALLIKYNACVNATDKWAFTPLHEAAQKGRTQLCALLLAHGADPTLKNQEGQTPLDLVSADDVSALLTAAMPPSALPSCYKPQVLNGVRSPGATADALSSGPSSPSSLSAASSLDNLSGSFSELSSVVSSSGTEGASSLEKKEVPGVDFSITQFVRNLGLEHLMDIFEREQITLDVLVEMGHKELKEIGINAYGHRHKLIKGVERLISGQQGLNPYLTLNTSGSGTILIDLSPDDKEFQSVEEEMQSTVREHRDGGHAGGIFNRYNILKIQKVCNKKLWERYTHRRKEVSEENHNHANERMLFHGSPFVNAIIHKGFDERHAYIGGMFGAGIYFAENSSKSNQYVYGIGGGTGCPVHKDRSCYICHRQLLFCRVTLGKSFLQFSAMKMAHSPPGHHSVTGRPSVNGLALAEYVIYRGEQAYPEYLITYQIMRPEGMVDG

[1] = system: wildtype Wnt signaling cascade; test: HEK293 TOP assay (Super TopFlash luciferase reporter, Wnt-3a stimulated); assay type: cell-based; settings: HEK293 TOP reporter cells, Wnt3a at EC50, 16 hours
Summary of the method: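 Compound series (50 μM down to 15 nM, 3.16-fold) diluted from DMSO 50-fold into CAFTY buffer, pH 7.4, 2 mM Ca^2+, 0.01% BSA, applied to Wnt-3a-stimulated HEK293 TopFlash and FOP reporter lines in parallel. Cells seeded 10000/well 24 h before; luciferase signal measured.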

IC50 (TNKS2) [nM] | IC50 ([1]; Homo sapiens, HEK293, 16 h) [nM] | Structure (SMILES) | IC50 [1] [nM]
28 | 9.2 | COCC(C)NC(=O)c1nc[nH]c1C(=O)N[C@H]1CC[C@@]2(CCN(c3ccc(F)cc3Cl)C2=O)CC1 (mixture of isomers) [Example 164, N^5-[(trans)-2-(2-chloro-4-fluorophenyl)-1-oxo-2-azaspiro[4.5]dec-8-yl]-N^4-(1-methoxypropan-2-yl)-1H-imidazole-4,5-dicarboxamide] | 
8.1 | 13 | CNC(=O)c1nc[nH]c1C(=O)N[C@H]1CC[C@H](C(=O)Nc2cc(F)c(F)cc2Cl)CC1 [Example 3, N^5-{trans-4-[(2-chloro-4,5-difluorophenyl)carbamoyl]cyclohexyl}-N^4-methyl-1H-imidazole-4,5-dicarboxamide] | 
2.1 | 10 | O=C(NCCN1CCCCC1)c1nc[nH]c1C(=O)N[C@H]1CC[C@H](C(=O)Nc2cc(F)c(F)cc2Cl)CC1 [Example 4, N^5-{trans-4-[(2-chloro-4,5-difluorophenyl)carbamoyl]cyclohexyl}-N^4-[2-(piperidin-1-yl)ethyl]-1H-imidazole-4,5-dicarboxamide] | 
110 | 190 | CNC(=O)c1nc[nH]c1C(=O)N[C@H]1CC[C@H](C(=O)Nc2cc(OC)c(OC)cc2Cl)CC1 [Example 5, N^5-{trans-4-[(2-chloro-4,5-dimethoxyphenyl)carbamoyl]cyclohexyl}-N^4-methyl-1H-imidazole-4,5-dicarboxamide] | 
60 | 55 | CNC(=O)c1nc[nH]c1C(=O)N[C@H]1CC[C@H](C(=O)Nc2c(F)cc(F)cc2Cl)CC1 [Example 6, N^5-{trans-4-[(2-chloro-4,6-difluorophenyl)carbamoyl]cyclohexyl}-N^4-methyl-1H-imidazole-4,5-dicarboxamide] | 
27 | 30 | CNC(=O)c1nc[nH]c1C(=O)N[C@H]1CC[C@H](C(=O)Nc2ccc(F)cc2Br)CC1 [Example 7, N^5-{trans-4-[(2-bromo-4-fluorophenyl)carbamoyl]cyclohexyl}-N^4-methyl-1H-imidazole-4,5-dicarboxamide] | 
2300 | 2100 | CNC(=O)c1nc[nH]c1C(=O)N[C@H]1CC[C@H](C(=O)Nc2ccc(F)cc2)CC1 [Example 8, N^5-{trans-4-[(4-fluorophenyl)carbamoyl]cyclohexyl}-N^4-methyl-1H-imidazole-4,5-dicarboxamide] | 
110 | 180 | CNC(=O)c1nc[nH]c1C(=O)N[C@H]1CC[C@H](C(=O)Nc2ccc(C)cc2Cl)CC1 [Example 9, N^5-{trans-4-[(2-chloro-4-methylphenyl)carbamoyl]cyclohexyl}-N^4-methyl-1H-imidazole-4,5-dicarboxamide] | 
1600 | 1500 | O=C(NCCC1CC1)c1nc[nH]c1C(=O)N[C@H]1CC[C@H](C(=O)Nc2cc(N3CCOCC3)ccc2Cl)CC1 [Example 93, N^5-(trans-4-{[2-chloro-5-(morpholin-4-yl)phenyl]carbamoyl}cyclohexyl)-N^4-(2-cyclopropylethyl)-1H-imidazole-4,5-dicarboxamide] | 
1600 | 610 | CC(C)(O)CNC(=O)c1nc[nH]c1C(=O)N[C@H]1CC[C@H](C(=O)Nc2cc(N3CCOCC3)ccc2Cl)CC1 [Example 94, N^5-(trans-4-{[2-chloro-5-(morpholin-4-yl)phenyl]carbamoyl}cyclohexyl)-N^4-(2-hydroxy-2-methylpropyl)-1H-imidazole-4,5-dicarboxamide] | 
4300 | 2100 | O=C(NCC(F)(F)F)c1nc[nH]c1C(=O)N[C@H]1CC[C@H](C(=O)Nc2cc(N3CCOCC3)ccc2Cl)CC1 [Example 95, N^5-(trans-4-{[2-chloro-5-(morpholin-4-yl)phenyl]carbamoyl}cyclohexyl)-N^4-(2,2,2-trifluoroethyl)-1H-imidazole-4,5-dicarboxamide] | 
28 | 22 | CNC(=O)c1nc[nH]c1C(=O)N[C@H]1CC[C@H](C(=O)Nc2cnccc2Cl)CC1 [Example 96, N^5-{trans-4-[(4-chloropyridin-3-yl)carbamoyl]cyclohexyl}-N^4-methyl-1H-imidazole-4,5-dicarboxamide] | 
39 | 34 | O=C(NCC1CCCO1)c1nc[nH]c1C(=O)N[C@H]1CC[C@H](C(=O)Nc2cnccc2Cl)CC1 (stereo partly drawn) [Example 97, N^5-{trans-4-[(4-chloropyridin-3-yl)carbamoyl]cyclohexyl}-N^4-(tetrahydrofuran-2-ylmethyl)-1H-imidazole-4,5-dicarboxamide] | 
39 | 570 | COC(C)(C)CNC(=O)c1nc[nH]c1C(=O)N[C@H]1CC[C@H](C(=O)Nc2cnccc2Cl)CC1 [Example 98, N^5-{trans-4-[(4-chloropyridin-3-yl)carbamoyl]cyclohexyl}-N^4-(2-methoxy-2-methylpropyl)-1H-imidazole-4,5-dicarboxamide] | 
110 | 51 | COCC(C)NC(=O)c1nc[nH]c1C(=O)N[C@H]1CC[C@H](C(=O)Nc2cnccc2Cl)CC1 (stereo partly drawn) [Example 99, N^5-{trans-4-[(4-chloropyridin-3-yl)carbamoyl]cyclohexyl}-N^4-(1-methoxypropan-2-yl)-1H-imidazole-4,5-dicarboxamide] | 
110 | 200 | Cc1cc(NC(=O)[C@H]2CC[C@H](NC(=O)c3[nH]cnc3C(=O)NCC(C)(C)O)CC2)c(Cl)cc1F [Example 100, N^5-{trans-4-[(2-chloro-4-fluoro-5-methylphenyl)carbamoyl]cyclohexyl}-N^4-(2-hydroxy-2-methylpropyl)-1H-imidazole-4,5-dicarboxamide] | 
100 | 360 | COC(C)(C)CNC(=O)c1nc[nH]c1C(=O)N[C@H]1CC[C@H](C(=O)Nc2cc(C)c(F)cc2Cl)CC1 [Example 101, N^5-{trans-4-[(2-chloro-4-fluoro-5-methylphenyl)carbamoyl]cyclohexyl}-N^4-(2-methoxy-2-methylpropyl)-1H-imidazole-4,5-dicarboxamide] | 
200 | 120 | Cc1cc(C)n2ncc(C(=O)N[C@H]3CC[C@H](C(=O)Nc4ccncc4Cl)CC3)c2n1 [Example 102, N-{trans-4-[(3-chloropyridin-4-yl)carbamoyl]cyclohexyl}-5,7-dimethylpyrazolo[1,5-a]pyrimidine-3-carboxamide] | 
290 | 410 | O=C(N[C@H]1CC[C@H](C(=O)Nc2ccncc2Cl)CC1)c1cnc2cccnn12 [Example 103, N-{trans-4-[(3-chloropyridin-4-yl)carbamoyl]cyclohexyl}imidazo[1,2-b]pyridazine-3-carboxamide] | 

Structure (SMILES) | IC50 (TNKS2) [nM] | IC50 ([1]; Homo sapiens, HEK293, 16 h) [nM] | IC50 [1] [nM]
Cc1c(C(C)N(C)C)cnc2c(C(=O)N[C@H]3CC[C@H](C(=O)Nc4ccc(F)cc4Cl)CC3)cnn12 (single isomer, unassigned) [Example 56, N-{trans-4-[(2-chloro-4-fluorophenyl)carbamoyl]cyclohexyl}-6-[1-(dimethylamino)ethyl]-7-methylpyrazolo[1,5-a]pyrimidine-3-carboxamide] | 370 |  | 990
Cc1c(C(C)N(C)C)cnc2c(C(=O)N[C@H]3CC[C@H](C(=O)Nc4ccc(F)cc4Cl)CC3)cnn12 (single isomer, unassigned) [Example 57, N-{trans-4-[(2-chloro-4-fluorophenyl)carbamoyl]cyclohexyl}-6-[1-(dimethylamino)ethyl]-7-methylpyrazolo[1,5-a]pyrimidine-3-carboxamide] | 160 |  | 310
CNC(=O)c1[nH]cnc1C(=O)NC1CCC(C(=O)Nc2ccc(F)cc2Cl)CC1OC (stereo not drawn) [Example 36, N^4-{(1α,2β,4β)-4-[(2-chloro-4-fluorophenyl)carbamoyl]-2-methoxycyclohexyl}-N^5-methyl-1H-imidazole-4,5-dicarboxamide] | > 10000 |  | 4900
CNC(=O)c1[nH]cnc1C(=O)NC1CCC(C(=O)Nc2ccc(F)cc2Cl)CC1OC (stereo not drawn) [Example 37, N^4-{(1α,2β,4β)-4-[(2-chloro-4-fluorophenyl)carbamoyl]-2-methoxycyclohexyl}-N^5-methyl-1H-imidazole-4,5-dicarboxamide] | > 10000 |  | 43000
